Experimental data from article PMC11440591 (Journal of Medicinal Chemistry, 2024).

Key:
EBOV = settings: cited from earlier work
VeroE6 cells = settings: cited from earlier work
[1] = system: EBOV-GP-pseudotyped virus (pEBOV); test: microbe, parasite or virus in culture; settings: for inhibition at 10 µM: Zaire ebolavirus, Vero C1008, read-out: %inh@10 μM (pEBOV); for EC50: Vesicular stomatitis virus, Vero C1008, 24 h, read-out: EC50 (pEBOV)
[2] = system: wild-type Zaire EBOV Mayinga 1976 strain (EBOV May); test: microbe, parasite or virus in culture; settings: Zaire ebolavirus, Vero C1008, 72 h, read-out: EC50 (EBOV May)
[3] = system: VSV-G-pseudotype virus (pVSV-G); test: microbe, parasite or virus in culture; type: cell-based; settings: Vesicular stomatitis virus, read-out: %inh@10µM (pVSV-G)
[4] = system: EBOV-GP-pseudotyped virus (pEBOV)
[5] = system: wild-type Zaire EBOV Mayinga 1976 strain (EBOV May)
[6] = system: pseudotypes with the SUDV envelope (pSUDV); test: microbe, parasite or virus in culture; type: cell-based; settings: Sudan ebolavirus, read-out: EC50 (pSUDV)

COC(=O)c1ccc(COc2ccccc2CN2CCN(C(=O)CNC(=O)CC34CC5CC(CC(C5)C3)C4)CC2)cc1 [3.47]
EC50 (EBOV): 0.16 µM

NC(=O)c1nc(F)cnc1O [Favipiravir, favipiravir]
IC50 (EBOV): 67 µM
CC50 (VeroE6 cells): > 1000 µM

CN(C)CCOc1ccc(/C(=C(/CCCl)c2ccccc2)c2ccccc2)cc1 [Toremifene, toremifene]
CC50 (VeroE6 cells): 16 µM

O=C(Nc1cccc(Cl)c1)c1ccc(-c2ccccc2)s1 [compound 4]
CC50 (in vitro; chlorocebus sabaeus): > 100 µM
inhibition at 10 µM [1]: < 75%
EC50 [2]: > 100 µM

O=C(NCCc1ccccc1)c1ccc(-c2ccccc2)s1 [compound 5]
CC50 (in vitro; African green monkey): 100 µM
CC50 (in vitro; chlorocebus sabaeus): > 100 µM
inhibition at 10 µM [1]: < 75%
EC50 [2]: > 100 µM

O=C(Nc1ccc(Cl)cc1)c1ccc(-c2ccccc2OC2CCNCC2)s1 [compound 47, N-(4-Chlorophenyl)-5-(2-(piperidin-4-yloxy)phenyl)thiophene-2-carboxamide]
inhibition at 10 µM [3]: -117%
SI (CC50/EC50) [4]: 3.32
SI (CC50/EC50) [5]: 18
CC50 at 24 h (in vitro; chlorocebus sabaeus): 27.9 µM
EC50 [1]: 8.4 µM
EC50 [2]: 1.55 µM

O=C(Nc1cccc(Cl)c1)c1ccc(-c2ccccc2OC2CCNCC2)s1 [compound 48, N-(3-Chlorophenyl)-5-(2-(piperidin-4-yloxy)phenyl)thiophene-2-carboxamide]
SI (CC50/EC50) [4]: 4.8
SI (CC50/EC50) [5]: 17.1
CC50 at 24 h (in vitro; chlorocebus sabaeus): 22.3 µM
EC50 [1]: 4.65 µM
EC50 [2]: 1.3 µM

O=C(NCCc1ccccc1)c1ccc(-c2ccccc2OC2CCNCC2)s1 [compound 49, N-Phenethyl-5-(2-(piperidin-4-yloxy)phenyl)thiophene-2-carboxamide]
inhibition at 10 µM [3]: -160%
SI (CC50/EC50) [4]: 5.6
SI (CC50/EC50) [5]: 36.9
CC50 at 24 h (in vitro; chlorocebus sabaeus): 29.2 µM
EC50 [1]: 5.2 µM
EC50 [2]: 0.79 µM

O=C(Nc1ccc(N2CCOCC2)cc1)c1ccc(-c2ccccc2OC2CCNCC2)s1 [compound 50, N-(4-Morpholinophenyl)-5-(2-(piperidin-4-yloxy)phenyl)thiophene-2-carboxamide]
inhibition at 10 µM [3]: -31%
SI (CC50/EC50) [4]: 2.26
SI (CC50/EC50) [5]: 2.8
CC50 at 24 h (in vitro; chlorocebus sabaeus): 22 µM
EC50 [1]: 9.7 µM
EC50 [2]: 7.74 µM

O=C(NCCC1CCN(Cc2ccccc2)CC1)c1ccc(-c2ccccc2OC2CCNCC2)s1 [compound 51, N-(2-(1-Benzylpiperidin-4-yl)ethyl)-5-(2-(piperidin-4-yloxy)phenyl)thiophene-2-carboxamide]
inhibition at 10 µM [3]: -148%
SI (CC50/EC50) [4]: 2
SI (CC50/EC50) [5]: 6.6
CC50 at 24 h (in vitro; chlorocebus sabaeus): 19.5 µM
EC50 [1]: 9.3 µM
EC50 [2]: 2.96 µM

O=C(c1ccc(-c2ccccc2OC2CCNCC2)s1)N1CCCC1 [compound 52, (5-(2-(Piperidin-4-yloxy)phenyl)thiophen-2-yl)(pyrrolidin-1-yl)methanone]
inhibition at 10 µM [3]: -108%
antiviral activity against pEBOV (in words) [4]: completely inactive
CC50 (in vitro; chlorocebus sabaeus): > 100 µM
inhibition at 10 µM [1]: -116%

O=C(Nc1ccccc1)c1ccc(-c2cccc(OC3CCNCC3)c2)s1 [compound 53, N-Phenyl-5-(3-(piperidin-4-yloxy)phenyl)thiophene-2-carboxamide]
EC50 [6]: 3.05 µM
inhibition at 10 µM [3]: 7%
CC50 at 24 h (in vitro; chlorocebus sabaeus): 33.9 µM
EC50 [1]: 7.19 µM
EC50 [2]: 0.3 µM

O=C(Nc1ccc(Cl)cc1)c1ccc(-c2cccc(OC3CCNCC3)c2)s1 [compound 54, N-(4-Chlorophenyl)-5-(3-(piperidin-4-yloxy)phenyl)thiophene-2-carboxamide]
inhibition at 10 µM [3]: 30%
SI (CC50/EC50) [4]: 2.8
SI (CC50/EC50) [5]: 8.9
CC50 at 24 h (in vitro; chlorocebus sabaeus): 10 µM
EC50 [1]: 3.53 µM
EC50 [2]: 1.12 µM

O=C(Nc1cccc(Cl)c1)c1ccc(-c2cccc(OC3CCNCC3)c2)s1 [compound 55, N-(3-Chlorophenyl)-5-(3-(piperidin-4-yloxy)phenyl)thiophene-2-carboxamide]
inhibition at 10 µM [3]: -4%
SI (CC50/EC50) [5]: 8.0
CC50 at 24 h (in vitro; chlorocebus sabaeus): 15 µM
EC50 [1]: 7.5 µM
EC50 [2]: 1.86 µM

O=C(NCCc1ccccc1)c1ccc(-c2cccc(OC3CCNCC3)c2)s1 [compound 56, N-Phenethyl-5-(3-(piperidin-4-yloxy)phenyl)thiophene-2-carboxamide]
inhibition at 10 µM [3]: -182%
SI (CC50/EC50) [4]: 1.98
SI (CC50/EC50) [5]: 2.0
CC50 at 24 h (in vitro; chlorocebus sabaeus): 10 µM
EC50 [1]: 5.03 µM
EC50 [2]: 4.93 µM

O=C(Nc1ccc(Cl)cc1)c1ccc(-c2ccc(OC3CCNCC3)cc2)s1 [compound 58, N-(4-Chlorophenyl)-5-(4-(piperidin-4-yloxy)phenyl)thiophene-2-carboxamide]
inhibition at 10 µM [3]: -12%
SI (CC50/EC50) [4]: 1.39
SI (CC50/EC50) [5]: 4.13
CC50 at 24 h (in vitro; chlorocebus sabaeus): 10 µM
EC50 [1]: 7.18 µM
EC50 [2]: 2.42 µM

O=C(Nc1cccc(Cl)c1)c1ccc(-c2ccc(OC3CCNCC3)cc2)s1 [compound 59, N-(3-Chlorophenyl)-5-(4-(piperidin-4-yloxy)phenyl)thiophene-2-carboxamide]
inhibition at 10 µM [3]: 5%
SI (CC50/EC50) [4]: 3.8
SI (CC50/EC50) [5]: 21.8
CC50 at 24 h (in vitro; chlorocebus sabaeus): 26 µM
EC50 [1]: 7.91 µM
EC50 [2]: 1.19 µM

O=C(NCCc1ccccc1)c1ccc(-c2ccc(OC3CCNCC3)cc2)s1 [compound 60, N-Phenethyl-5-(4-(piperidin-4-yloxy)phenyl)thiophene-2-carboxamide]
inhibition at 10 µM [3]: -12%
antiviral activity against pEBOV (in words) [4]: completely inactive
CC50 at 24 h (in vitro; chlorocebus sabaeus): 10 µM
inhibition at 10 µM [1]: -8%

O=C(NCCC1CCN(Cc2ccccc2)CC1)c1ccc(-c2ccc(OC3CCNCC3)cc2)s1 [compound 63, N-(2-(1-Benzylpiperidin-4-yl)ethyl)-5-(4-(piperidin-4-yloxy)phenyl)thiophene-2-carboxamide]
inhibition at 10 µM [3]: 12%
antiviral activity against pEBOV (in words) [4]: completely inactive
CC50 (in vitro; chlorocebus sabaeus): > 100 µM
inhibition at 10 µM [1]: 58%

O=C(NCCC1CCN(Cc2ccccc2)CC1)c1cnc(-c2ccc(OC3CCNCC3)cc2)s1 [compound 79, N-(2-(1-Benzylpiperidin-4-yl)ethyl)-2-(4-(piperidin-4-yloxy)phenyl)thiazole-5-carboxamide]
inhibition at 10 µM [3]: 39%
SI (CC50/EC50) [4]: 12
SI (CC50/EC50) [5]: 12.8
CC50 (in vitro; chlorocebus sabaeus): > 100 µM
EC50 [1]: 8.3 µM
EC50 [2]: 7.83 µM

O=C(NCCc1ccccc1)c1cnc(-c2ccccc2OC2CCNCC2)s1 [compound 97, N-Phenethyl-2-(2-(piperidin-4-yloxy)phenyl)thiazole-5-carboxamide]
inhibition at 10 µM [3]: 18%
SI (CC50/EC50) [4]: 14.5
SI (CC50/EC50) [5]: 5.8
CC50 at 24 h (in vitro; chlorocebus sabaeus): 91 µM
EC50 [1]: 6.27 µM
EC50 [2]: 15.7 µM

O=C(Nc1ccc(Cl)cc1)c1ccc(-c2ccccc2OC2CCNCC2)o1 [compound 99, N-(4-Chlorophenyl)-5-(2-(piperidin-4-yloxy)phenyl)furan-2-carboxamide]
inhibition at 10 µM [3]: 10%
SI (CC50/EC50) [4]: 3.1
SI (CC50/EC50) [5]: 7.9
CC50 at 24 h (in vitro; chlorocebus sabaeus): 20 µM
EC50 [1]: 6.35 µM
EC50 [2]: 2.53 µM

O=C(Nc1ccccc1)c1ccc(-c2ccccc2OC2CCNCC2)o1 [compound 100, N-Phenyl-5-(2-(piperidin-4-yloxy)phenyl)furan-2-carboxamide]
inhibition at 10 µM [3]: 32%
SI (CC50/EC50) [4]: 3.8
CC50 at 24 h (in vitro; chlorocebus sabaeus): 79 µM
EC50 [1]: 20.7 µM

O=C(NCCC1CCN(Cc2ccccc2)CC1)c1ccc(-c2ccccc2OC2CCNCC2)o1 [compound 101, N-(2-(1-Benzylpiperidin-4-yl)ethyl)-5-(2-(piperidin-4-yloxy)phenyl)furan-2-carboxamide]
inhibition at 10 µM [3]: 39%
SI (CC50/EC50) [4]: 18.7
SI (CC50/EC50) [5]: 9.5
CC50 at 24 h (in vitro; chlorocebus sabaeus): 90 µM
EC50 [1]: 4.81 µM
EC50 [2]: 9.5 µM

O=C(NCCc1ccccc1)c1ccc(-c2ccccc2OC2CCNCC2)o1 [compound 102, N-Phenethyl-5-(2-(piperidin-4-yloxy)phenyl)furan-2-carboxamide]
inhibition at 10 µM [3]: -23%
SI (CC50/EC50) [4]: 12.77
SI (CC50/EC50) [5]: 4.5
CC50 at 24 h (in vitro; chlorocebus sabaeus): 27.6 µM
EC50 [1]: 2.16 µM
EC50 [2]: 6.19 µM

O=C(Nc1ccccc1)c1ccc(-c2cccc(OC3CCNCC3)c2)o1 [compound 103, N-Phenyl-5-(3-(piperidin-4-yloxy)phenyl)furan-2-carboxamide]
inhibition at 10 µM [3]: -18%
SI (CC50/EC50) [4]: 1.7
SI (CC50/EC50) [5]: 1.5
CC50 at 24 h (in vitro; chlorocebus sabaeus): 14.1 µM
EC50 [1]: 8.27 µM
EC50 [2]: 9.26 µM
